What follows are compounds tested against T1, USP7 (Homo sapiens, UniProt Q93009, C315A) (assay: Inhibition of USP7 by Fluorescence Intensity (FLINT) readings, Ubiquitin-Rhodamine-110 substrate). Details: 0.25 nM His-His-USP7 (aa208-560, [C315A]); compound 60 minutes at 30° C.; 500 nM Ubiquitin-Rhodamine substrate; 11-point curves.
T1 construct: 0.25 nM His-His-USP7 (aa208-560, [C315A]) was incubated with compound; His-His (N)
T1 sequence (Q93009 208-560 C315A): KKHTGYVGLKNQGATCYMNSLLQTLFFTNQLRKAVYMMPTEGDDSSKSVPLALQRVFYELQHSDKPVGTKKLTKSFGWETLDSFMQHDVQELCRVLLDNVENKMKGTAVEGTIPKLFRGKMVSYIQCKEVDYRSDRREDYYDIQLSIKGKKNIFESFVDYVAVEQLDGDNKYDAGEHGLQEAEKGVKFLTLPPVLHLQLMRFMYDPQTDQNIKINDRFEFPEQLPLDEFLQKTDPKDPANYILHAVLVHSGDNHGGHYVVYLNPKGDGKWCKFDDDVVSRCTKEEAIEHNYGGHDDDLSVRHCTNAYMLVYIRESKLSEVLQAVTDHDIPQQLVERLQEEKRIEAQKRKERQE
Type: biochemical
Protocol: USP7 activity was measured using Rhodamine-110 c-terminal labelled Ubiquitin as a substrate (Viva Biosciences). Incubation with USP7 results in the release of Rhodamine-110 leading to an increase in fluorescence which can be used in the continuous measurement of USP7 activity.
The USP7 reactions were performed in a 50 μL volume, in 384 well black solid low binding plates (Corning #3575). The reaction buffer consisted of 100 mM Bicine pH 8.0, 0.01% TritonX 100, 1 mM TCEP, and 10% DMSO.
0.25 nM His-His-USP7 (aa208-560, [C315A]) was incubated with compound (final concentration 10% DMSO) for 60 minutes at 30° C. The reaction was then initiated by the addition of 500 nM Ubiquitin-Rhodamine-10 substrate and the plate read every 3 minutes for 21 minutes to measure the release of Rhodamine-110. Fluorescence Intensity (FLINT) readings were measured using a Biomek Neo plate reader (Ex. 485 nm. Em. 535 nm).
The inhibition of increasing doses of compound was expressed as a percentage reduction in kinetic rate compared to the kinetic rates established between ‘DMSO only’ and ‘total inhibition’ controls (no USP7). The inhibitory concentrations that gave a 50% reduction in kinetic rate (IC50) were determined, from 11-point dose response curves, in XL-Fit using a 4-Parameter Logistic Model (Sigmoidal Dose-Response Model).
`O=C([C@@H]1CCCC[C@H]1c1ccsc1)N1CCC(O)(Cn2cnc3cccnc3c2=O)CC1` (relative stereo) [Example 1, 3-[[4-hydroxy-1-[trans-2-(3-thienyl)cyclohexanecarbonyl]-4-piperidyl]methyl]pyrido[3,2-d]pyrimidin-4-one] showed an IC50 of 916 nM.
`Cn1ccc2c(=O)n(CC3(O)CCN(C(=O)[C@@H]4CCCC[C@H]4c4ccsc4)CC3)cnc21` (relative stereo) [Example 2, 3-[[4-hydroxy-1-[trans-2-(3-thienyl)cyclohexanecarbonyl]-4-piperidyl]methyl]-7-methyl-pyrrolo[2,3-d]pyrimidin-4-one] was tested, and the IC50 was 439 nM.
`Cn1ccc2c(=O)n(CC3(O)CCN(C(=O)[C@@H]4CCCC[C@H]4c4ccoc4)CC3)cnc21` (relative stereo) [Example 3, 3-[[1-[trans-2-(3-furyl)cyclohexanecarbonyl]-4-hydroxy-4-piperidyl]methyl]-7-methyl-pyrrolo[2,3-d]pyrimidin-4-one] gave an IC50 of 530 nM.
Work on `O=C([C@@H]1CCCC[C@H]1c1ccoc1)N1CCC(O)(Cn2cnc3cccnc3c2=O)CC1` (relative stereo) [Example 4, 3-[[1-[trans-2-(3-furyl)cyclohexanecarbonyl]-4-hydroxy-4-piperidyl]methyl]pyrido[3,2-d]pyrimidin-4-one] yielded an IC50 of 4580 nM.
Compound `O=C([C@@H]1CCO[C@H]1c1ccccc1)N1CCC(O)(Cn2cnc3c(ccn3-c3ccccc3)c2=O)CC1` (relative stereo) [Example 46, 3-[[4-hydroxy-1-[trans-2-phenyltetrahydrofuran-3-carbonyl]-4-piperidyl]methyl]-7-phenyl-pyrrolo[2,3-d]pyrimidin-4-one] has an IC50 of 685 nM.
`O=C([C@@H]1CCCC(F)(F)[C@H]1c1ccccc1)N1CCC(O)(Cn2cnc3c(ccn3-c3ccccc3)c2=O)CC1` (relative stereo) [Example 51, 3-[[1-[trans-3,3-difluo-2-phenyl-cyclohexanecarbonyl]-4-hydroxy-4-piperidyl]methyl]-7-phenyl-pyrrolo[2,3-d]pyrimidin-4-one] was tested, and the IC50 was 10100 nM.
Compound `O=C([C@@H]1CCC(F)(F)C[C@H]1c1cccs1)N1CCC(O)(Cn2cnc3c(ccn3-c3ccccc3)c2=O)CC1` (relative stereo) [Example 71, 3-[[1-[trans-4,4-difluoro-2-(2-thienyl)cyclohexanecarbonyl]-4-hydroxy-4-piperidyl]methyl]-7-phenyl-pyrrolo[2,3-d]pyrimidin-4-one] has an IC50 of 162 nM.
Work on `COc1ccc(-n2ccc3c(=O)n(CC4(O)CCN(C(=O)[C@@H]5CCC(F)(F)C[C@H]5c5ccoc5)CC4)cnc32)cc1` (relative stereo) [Example 74, 3-[[1-[trans-4,4-difluoro-2-(3-fury)cyclohexanecarbonyl]-4-hydroxy-4-piperidyl]methyl]-7-(4-methoxyphenyl)pyrrolo[2,3-d]pyrimidin-4-one] yielded an IC50 of 2900 nM.
With `O=C([C@@H]1CCC(F)(F)C[C@H]1c1cnco1)N1CCC(O)(Cn2cnc3c(Cl)scc3c2=O)CC1` (relative stereo) [Example 76, 7-chloro-3-[[1-[trans-4,4-difluoro-2-oxazol-5-yl-cyclohexanecarbonyl]-4-hydroxy-4-piperidyl]methyl]thieno[3,4-d]pyrimidin-4-one] the IC50 was 6640 nM.
In the case of `O=C([C@@H]1CCC(F)(F)C[C@H]1c1cocn1)N1CCC(O)(Cn2cnc3c(-c4ccc(CO)cc4)scc3c2=O)CC1` (relative stereo) [Example 77, 3-[[1-[trans-4,4-difluoro-2-oxazol-4-yl-cyclohexanecarbonyl]-4-hydroxy-4-piperidyl]methyl]-7-[4-(hydroxymethyl)phenyl]thieno[3,4-d]pyrimidin-4-one], the IC50 was 591 nM.
For `O=C([C@@H]1CCC(F)(F)C[C@H]1c1ccncc1)N1CCC(O)(Cn2cnc3c(-c4ccccc4)scc3c2=O)CC1` (relative stereo) [Example 84, 3-[[1-[trans-4,4-difluoro-2-(4-pyridyl)cyclohexanecarbonyl]-4-hydroxy-4-piperidyl]methyl]-7-phenyl-thieno[3,4-d]pyrimidin-4-one], the IC50 was 611 nM.
`Cc1cc([C@@H]2CC(F)(F)CC[C@H]2C(=O)N2CCC(O)(Cn3cnc4c(-c5ccccc5)scc4c3=O)CC2)cs1` (relative stereo) [Example 90, 3-[[1-[trans-4,4-difluoro-2-(S-methyl-3-thienyl)cyclohexanecarbonyl]-4-hydroxy-4-piperidyl]methyl]-7-phenyl-thieno[3,4-d]pyrimidin-4-one] was tested, and the IC50 was 2920 nM.
Work on `O=C([C@@H]1CCCC[C@H]1c1ccccc1)N1CCC(O)(Cn2cnc3sccc3c2=O)CC1` (relative stereo) [Example 91, 3-[[4-hydroxy-1-(trans-2-phenylcyclohexanecarbonyl)-4-piperidyl]methyl]thieno[2,3-d]pyrimidin-4-one] yielded an IC50 of 137 nM.
`O=C([C@@H]1CCCC[C@H]1c1ccccc1)N1CCC(O)(Cn2cnc3cccnc3c2=O)CC1` (relative stereo) [Example 93, 3-[[4-hydroxy-1-(trans-2-phenylcyclohexanecarbonyl)-4-piperidyl]methyl]pyrido[3,2-d]pyrimidin-4-one] was tested, and the IC50 was 171 nM.
Work on `COc1ccc(CNc2ccc3ncn(CC4(O)CCN(C(=O)[C@@H]5CCCC[C@H]5c5ccccc5)CC4)c(=O)c3n2)cc1` (relative stereo) [Example 94, 3-[[4-hydroxy-1-(trans-2-phenylcyclohexanecarbonyl)-4-piperidyl]methyl]-6-[(4-methoxyphenyl)methylamino]pyrido[3,2-d]pyrimidin-4-one] yielded an IC50 of 351 nM.
`Nc1ccc2ncn(CC3(O)CCN(C(=O)[C@@H]4CCCC[C@H]4c4ccccc4)CC3)c(=O)c2n1` (relative stereo) [Example 100, 6-amino-3-[[4-hydroxy-1-(trans-2-phenylcyclohexanecarbonyl)-4-piperidyl]methyl]pyrido[3,2-d]pyrimidin-4-one] showed an IC50 of 226 nM.
`O=C(Nc1ccc2ncn(CC3(O)CCN(C(=O)[C@@H]4CCCC[C@H]4c4ccccc4)CC3)c(=O)c2n1)C1CCOC1` (relative stereo) [Example 101, N-[3-[[4-hydroxy-1-(trans-2-phenylcyclohexanecarbonyl)-4-piperidyl]methyl]-4-oxo-pyrido[3,2-d]pyrimidin-6-yl]tetrahydrofuran-3-carboxamide] showed an IC50 of 99.6 nM.
`O=C(Nc1ccc2ncn(CC3(O)CCN(C(=O)[C@@H]4CCCC[C@H]4c4ccccc4)CC3)c(=O)c2n1)C1CCCC1O` (relative stereo) [Example 103, 2-hydroxy-N-[3-[[4-hydroxy-1-(trans-2-phenylcyclohexanecarbonyl)-4-piperidyl]methyl]4-oxo-pyrido[3,2-d]pyrimidin-6-yl]cyclopentanecarboxamide] was tested, and the IC50 was 125 nM.
For `O=C(Cc1cccc(O)c1)Nc1ccc2ncn(CC3(O)CCN(C(=O)[C@@H]4CCCC[C@H]4c4ccccc4)CC3)c(=O)c2n1` (relative stereo) [Example 104, 2-(3-hydroxyphenyl)-N-[3-[[4-hydroxy-1-(trans-2-phenylcyclohexanecarbonyl)-4-piperidyl]methyl]-4-oxo-pyrido[3,2-d]pyrimidin-6-yl]acetamide], the IC50 was 21.7 nM.
`O=C(CC1CCCO1)Nc1ccc2ncn(CC3(O)CCN(C(=O)[C@@H]4CCCC[C@H]4c4ccccc4)CC3)c(=O)c2n1` (relative stereo) [Example 106, N-[3-[[4-hydroxy-1-(trans-2-phenylcyclohexanecarbonyl)-4-piperidyl]methyl]-4-oxo-pyrido[3,2-d]pyrimidin-6-yl]-2-tetrahydrofuran-2-yl-acetamide] showed an IC50 of 100 nM.
